{
  "source": "patent US10829798B2",
  "about": "“DNA-linked enzyme-coupled assays” (THE REGENTS OF THE UNIVERSITY OF CALIFORNIA, priority 2014, dated 2020)",
  "key": {"OleD [1]": {"target": "T1, OleD (Streptomyces antibioticus, UniProt Q53685, P55A/R82V/R83E/T84P)", "T1 construct": "made in house; host or cells: PURExpress In Vitro Protein Synthesis Kit (NEB E6800L), cell-free transcription/translation, linear DNA with T7 promoter", "T1 sequence (Q53685 other isoform, or with tags, fused parts or gaps P55A/R82V/R83E/T84P)": "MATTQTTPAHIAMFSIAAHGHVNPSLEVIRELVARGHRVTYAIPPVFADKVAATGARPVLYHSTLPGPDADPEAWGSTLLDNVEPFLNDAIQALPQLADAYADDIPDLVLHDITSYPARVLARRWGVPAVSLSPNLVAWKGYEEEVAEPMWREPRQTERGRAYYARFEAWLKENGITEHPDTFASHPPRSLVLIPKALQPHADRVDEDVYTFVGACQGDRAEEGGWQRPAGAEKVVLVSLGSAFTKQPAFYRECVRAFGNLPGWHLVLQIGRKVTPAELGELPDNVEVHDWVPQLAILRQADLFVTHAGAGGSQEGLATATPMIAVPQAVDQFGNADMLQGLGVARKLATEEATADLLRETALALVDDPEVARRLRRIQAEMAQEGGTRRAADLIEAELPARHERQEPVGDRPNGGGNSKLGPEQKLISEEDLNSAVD", "assay": "qPCR DLEnCA, cell-free transcription/translation-derived OleD", "assay_type": "biochemical", "settings": "OleD DNA 5 nM, UDP-Glc 2 μM, probe 0.2 nM; for recovery of intact probe DNA: chemical 1 mM, low recovery = substrate glucosylated; for significant loss in protection of the DNA probe: flavone 1 mM", "experimental": "(§1) FIG. 4A-FIG. 4D. qPCR DLEnCA and substrate specificity studies. A. Chemicals used as substrates in subsequent assays: (i) known substrates of OleD; (ii) flavone library; (iii) known substrates of GT05 (UGT72B1 (Q9M156)) and GT06 (UGT89B1 (AT1 G73880)). B. DNA encoding OleD (5 nM) was incubated in a cell-free transcription/translation system for 3 hours at 37° C., followed by the addition of chemical (1 mM) and UDP-Glc (2 μM). After a subsequent incubation of 3 hours, TbGT and probe (0.2 nM) were added. After probe purification and MfeI digestion, probe integrity was identified using qPCR. Percent recovery of probe is reported (n=8; error bars=standard error). C. DNA encoding OleD (5 nM) was incubated for 3 hours at 37° C. in a cell-free transcription/translation system, followed by the addition of flavone (1 mM) and UDP-Glc (2 μM). After a subsequent incubation of 3 hours, TbGT and probe (0.2 nM) were added. After probe purification and MfeI addition, probe integrity was identified using qPCR. Percent recovery of probe is reported (n=8; error bars=standard error). D. DNA encoding OleD, GT05, or GT06 (5 nM) were incubated for 3 hours at 37° C. in a cell-free transcription/translation system, followed by the addition of chemical (1 mM) and UDP-Glc (2 μM). After a subsequent incubation of 3 hours, TbGT and probe (0.2 nM) were added. After probe purification and MfeI digestion, probe integrity was identified using qPCR. Percent recovery of probe is reported as a heat map (n=8) (specific recovery figures and percent error can be found in FIG. 16). *=p<0.05 vs. no chemical control.\nPCR tubes were used for most reactions. All incubations were performed at 37° C. Assays were initiated upon the addition of linear DNA (5 nM final concentration) to 4 μl PURExpress Solution A and 3 μl PURExpress Solution B. Samples were incubated at 37° C. for 3 hours prior to addition of UDP-Glucose and chemical (1 mM final concentration) in DMSO. Samples were incubated for an additional 3 hours prior to addition of 1 unit T4 Phage β-glucosyltransferase containing 0.2 nM probe. Samples were incubated an additional 3 hours before DNA was purified using the Zymo DNA Clean and Concentrator Kit. Samples were digested overnight with MfeI prior to analysis. Concentration of intact DNA probe was identified using the iQ SYBR Green Supermix (1708880) with probe DNA as standards. qPCR was carried out on the Bio-Rad iQ5 Multicolor Real-Time PCR Detection System using primers P13 and P14 with the following temperatures; 94° C. 30 seconds followed by 40 cycles of 94° C. 10 seconds and 55° C. for 30 seconds. All results were compared to uncut probe DNA that had been carried through the process as negative controls (considered full recovery of probe).\nThe second DLEnCA workflow developed involved qPCR as a final readout (qPCR DLEnCA, FIG. 1—qPCR workflow). A linear fragment of DNA was modified to contain 5-hm-cytosines throughout. To determine a threshold for probe protection under conditions amenable to the qPCR DLEnCA workflow, UDP-Glc was titrated into mixtures of the cell-free transcription/translation system containing 5-hm-cytosine-modified DNA probe (0.2 nM probe DNA containing 0.1 μM modified 5-hm-cytosines) and TbGT. After digestion with the restriction enzyme MfeI, the amount of intact DNA probe was determined using qPCR (FIG. 3C). […] A threshold for protection was identified at a 20:1 molar ratio of UDP-Glc to total 5-hm-cytosine in probe DNA; this UDP-Glc amount was used as the starting concentration of UDP-Glc for all qPCR experiments. To test the feasibility of qPCR DLEnCA, OleD was again tested upon the substrate kaempferol (FIG. 3D), using DNA encoding a promoter and OleD as starting material. As expected, when all components of the assay were present, 27% of intact probe DNA was recovered. […]"}, "[2]": {"target": "T2, GT06 (UGT89B1 (AT1G73880)) (Arabidopsis thaliana, UniProt Q9C9B0)", "T2 sequence (Q9C9B0 1-473)": "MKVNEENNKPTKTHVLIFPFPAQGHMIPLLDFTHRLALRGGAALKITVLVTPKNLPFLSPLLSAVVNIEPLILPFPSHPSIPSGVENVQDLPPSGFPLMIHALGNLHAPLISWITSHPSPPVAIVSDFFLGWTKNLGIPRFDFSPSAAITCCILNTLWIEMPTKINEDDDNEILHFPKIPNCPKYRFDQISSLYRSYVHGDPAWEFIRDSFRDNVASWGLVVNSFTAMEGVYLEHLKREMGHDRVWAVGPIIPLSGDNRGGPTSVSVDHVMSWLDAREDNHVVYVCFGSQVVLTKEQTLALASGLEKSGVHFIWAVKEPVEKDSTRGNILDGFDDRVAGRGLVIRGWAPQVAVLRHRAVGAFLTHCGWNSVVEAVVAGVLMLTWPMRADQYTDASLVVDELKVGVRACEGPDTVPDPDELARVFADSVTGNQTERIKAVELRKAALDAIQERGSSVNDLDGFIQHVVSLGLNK", "assay": "qPCR DLEnCA, cell-free transcription/translation-derived GT06", "assay_type": "biochemical", "settings": "GT06 DNA 5 nM, chemical 1 mM, UDP-Glc 2 μM, probe 0.2 nM; low recovery = substrate glucosylated", "experimental": "as §1, with “After probe purification and MfeI digestion, probe integrity was identified using qPCR. Percent recovery of probe is reported as a heat map (n=8) (specific recovery figures and percent error can be found in FIG. 16). *=p<0.05 vs. no chemical control.” left out"}, "GT05 (UGT72B1 (Q9M156))": {"target": "T3, GT05 (UGT72B1 (Q9M156)) (Arabidopsis thaliana, UniProt Q9M156)", "T3 construct": "made in house; host or cells: PURExpress In Vitro Protein Synthesis Kit (NEB E6800L), cell-free transcription/translation, linear DNA amplified from pET15b construct", "T3 sequence (Q9M156 1-480)": "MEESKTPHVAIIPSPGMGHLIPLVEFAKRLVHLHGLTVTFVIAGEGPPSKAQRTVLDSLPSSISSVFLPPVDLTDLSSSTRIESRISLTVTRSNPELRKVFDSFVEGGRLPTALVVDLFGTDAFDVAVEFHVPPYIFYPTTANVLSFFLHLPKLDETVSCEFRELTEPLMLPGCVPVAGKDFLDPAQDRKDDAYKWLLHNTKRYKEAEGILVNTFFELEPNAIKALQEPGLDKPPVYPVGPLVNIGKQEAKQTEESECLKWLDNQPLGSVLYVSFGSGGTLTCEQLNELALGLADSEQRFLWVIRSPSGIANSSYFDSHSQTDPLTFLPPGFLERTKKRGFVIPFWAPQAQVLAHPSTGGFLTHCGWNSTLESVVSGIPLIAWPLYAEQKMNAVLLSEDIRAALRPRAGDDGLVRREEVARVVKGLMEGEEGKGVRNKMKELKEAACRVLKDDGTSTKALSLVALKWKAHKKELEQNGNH", "assay": "qPCR DLEnCA, cell-free transcription/translation-derived GT05", "assay_type": "biochemical", "settings": "GT05 DNA 5 nM, chemical 1 mM, UDP-Glc 2 μM, probe 0.2 nM; low recovery = substrate glucosylated", "experimental": "as §1\nPCR tubes were used for most reactions. All incubations were performed at 37° C. Assays were initiated upon the addition of linear DNA (5 nM final concentration) to 4 μl PURExpress Solution A and 3 μl PURExpress Solution B. Samples were incubated at 37° C. for 3 hours prior to addition of UDP-Glucose and chemical (1 mM final concentration) in DMSO. Samples were incubated for an additional 3 hours prior to addition of 1 unit T4 Phage β-glucosyltransferase containing 0.2 nM probe. […]"}, "OleD [3]": {"test_system": "OleD", "settings": "Williams 2007; Choi 2012; Yang 2005; cited from earlier work"}, "OleD [4]": {"target": "T1, OleD", "assay": "LCMS analysis of OleD-catalyzed glucosylation in cell-free reactions", "assay_type": "biochemical", "settings": "equal-molar chemical and UDP-glucose, PURExpress, 3 hours at 37° C.", "source_text": "Determination of glucosylation was accomplished by means of an LCMS system consisting of an Agilent Technologies 1200 series HPLC with an Agilent Technologies 6520 Accurate Mass qTOF LC/MS. An Eclipse Plus C18 (4.6 mm×100 mm i.d., 3.5-μm packing, Agilent Technologies) reverse-phase column with a guard Zorbax Eclipse Plus C18 column ([…], 5 μm packing, Agilent Technologies) was used for separating the samples. Water+0.1% Formic Acid and Acetonitrile+0.1% Formic Acid were used as mobile phases at a flow rate of 500 μl/min. The elution gradient water/acetonitrile ratio) was ramped as follows: 98:2 (v/v) (0-2 min), 98:2-5:95 (v/v) linearly (2-17 min), 5:95 (v/v) (17-27 min), and 5:95-98-2 (v/v) (27-28 min). Full scanning mode (50-750 m/z) was used for data acquisition in a positive-ion mode, and the operation parameters were as follows: ESI probe capillary voltage, +3.5 kV with a scan rate of 1.01 scans/second. The nebulizer gas flow rate was 7 L/min. During the analysis two references (121.0509 m/z (C5H4N4) and 922.0098 m/z (C18H18O6N3P3F24)) were continuously measured to allow constant mass correction.\nSamples were prepared directly from cell-free reactions. Equal-molar amounts of chemical and UDP-glucose were incubated with DNA encoding the glucosyltransferase of interest or water in PURExpress for 3 hours at 37° C. […]"}},
  "data": [
    {"smiles": "O=c1cc(-c2ccccc2)oc2cc(O)ccc12", "note": "[IX, 7-hydroxyflavone]", "values": [
      {"measurement": "recovery of intact probe DNA", "setting": "OleD [1]", "value": 39, "unit": "%"}
    ]},
    {"smiles": "O=C(O)c1ccc(O)c(O)c1", "note": "[XII, 3,4-dihydroxybenzoic acid]", "values": [
      {"measurement": "recovery of probe", "setting": "[2]", "value": 30, "unit": "%"},
      {"measurement": "recovery of probe", "setting": "GT05 (UGT72B1 (Q9M156))", "value": 40, "unit": "%"}
    ]},
    {"smiles": "O=c1cc(-c2ccc(O)cc2)oc2ccccc12", "note": "[VII, 4-hydroxyflavone]", "values": [
      {"measurement": "significant loss in protection of the DNA probe", "setting": "OleD [1]", "value": "not the case"}
    ]},
    {"smiles": "O=C(O)c1cc2ccc(O)cc2oc1=O", "note": "[V, 7-hydroxycoumarin-3-carboxylic acid]", "values": [
      {"measurement": "recovery of intact probe DNA", "setting": "OleD [1]", "value": 97, "unit": "%"},
      {"measurement": "OleD substrate quality reported in previous studies", "setting": "OleD [3]", "value": "very weak substrates"}
    ]},
    {"smiles": "Cc1cc(=O)oc2cc(O)ccc12", "note": "[III, 4-methylumbelliferone]", "values": [
      {"measurement": "recovery of intact probe DNA", "setting": "OleD [1]", "value": 60, "unit": "%"},
      {"measurement": "OleD substrate quality reported in previous studies", "setting": "OleD [3]", "value": "slower rate or with less efficiency than with (I)"},
      {"measurement": "identification as OleD substrate by LCMS", "setting": "OleD [4]", "value": "identified the chemicals as substrates"}
    ]},
    {"smiles": "O=C(O)c1cccc(O)c1", "note": "[X, 3-hydroxybenzoic acid]", "values": [
      {"measurement": "recovery of probe", "setting": "GT05 (UGT72B1 (Q9M156))", "value": 33, "unit": "%"}
    ]},
    {"smiles": "O=c1c(O)c(-c2ccccc2)oc2ccccc12", "note": "[VI, 3-hydroxyflavone]", "values": [
      {"measurement": "recovery of intact probe DNA", "setting": "OleD [1]", "value": 42, "unit": "%"}
    ]},
    {"smiles": "O=c1cc(-c2ccccc2)oc2cccc(O)c12", "note": "[VIII, 5-hydroxyflavone]", "values": [
      {"measurement": "significant loss in protection of the DNA probe", "setting": "OleD [1]", "value": "not the case"}
    ]},
    {"smiles": "O=c1cc(-c2ccc(O)cc2)oc2cc(O)cc(O)c12", "note": "[II, apigenin]", "values": [
      {"measurement": "recovery of intact probe DNA", "setting": "OleD [1]", "value": 42, "unit": "%"},
      {"measurement": "OleD substrate quality reported in previous studies", "setting": "OleD [3]", "value": "slower rate or with less efficiency than with (I)"},
      {"measurement": "identification as OleD substrate by LCMS", "setting": "OleD [4]", "value": "identified the chemicals as substrates"}
    ]},
    {"smiles": "O=C(O)Cc1cc(=O)oc2cc(O)ccc12", "note": "[IV, 7-hydroxycoumarin-4-acetic acid]", "values": [
      {"measurement": "recovery of intact probe DNA", "setting": "OleD [1]", "value": 82, "unit": "%"},
      {"measurement": "OleD substrate quality reported in previous studies", "setting": "OleD [3]", "value": "very weak substrates"}
    ]}
  ]
}
